# Experiments:
# Assay type in all cases: cell-based
# [1] = test system: STAPHYLOCOCCUS AUREUS ATCC 6538P; experiment: In vitro antibacterial activity, MIC, BHI agar dilution; conditions: S. aureus ATCC 6538P, 35-37° C., 20 to 24 hours, unit assumed
# [2] = test system: STAPHYLOCOCCUS AUREUS A5177; experiment: as above; conditions: S. aureus A5177, unit assumed
# [3] = test system: STAPHYLOCOCCUS AUREUS A-5278; experiment: as above; conditions: S. aureus A-5278, unit assumed
# [4] = test system: STAPHYLOCOCCUS AUREUS CMX 642A; experiment: as above; conditions: S. aureus CMX 642A, unit assumed
# [5] = test system: STAPHYLOCOCCUS AUREUS NCTC10649M; experiment: as above; conditions: S. aureus NCTC10649M, unit assumed
# [6] = test system: STAPHYLOCOCCUS AUREUS CMX 553; experiment: as above; conditions: S. aureus CMX 553, unit assumed
# [7] = test system: STAPHYLOCOCCUS AUREUS 1775; experiment: as above; conditions: S. aureus 1775, unit assumed
# [8] = test system: STAPHYLOCOCCUS EPIDERMIDIS 3519; conditions: S. epidermidis 3519; BHI agar; unit assumed
# EN[…] ATCC 8043 = experiment: In vitro antibacterial activity, MIC, BHI agar dilution; conditions: E. faecium ATCC 8043, unit assumed
# Outline: (§1)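 Twelve successive aqueous dilutions of compound in Brain Heart Infusion agar were inoculated with 1:100 culture dilutions (1:10 for slow growers such as Micrococcus, Streptococcus) by Steers replicator and incubated at 35-37° C for 20 to 24 hours. MIC was the lowest concentration giving no growth, slight haze or sparse colonies versus drug-free control.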
# M[…] ATCC 4698 = experiment: as above; conditions: M. luteus ATCC 4698, unit assumed
# Outline: as §1
# M[…] ATCC 9341 = experiment: as above; conditions: M. luteus ATCC 9341, unit assumed
# Outline: as §1
# STR[…] 508 = experiment: as above; conditions: S. agalactiae CMX 508, unit assumed
# Outline: as §1
# [9] = test system: STREPTOCOCCUS BOVIS A-5169; experiment: as above; conditions: S. bovis A-5169, unit assumed
# [10] = test system: STREPTOCOCCUS PYOGENES EES61; experiment: as above; conditions: S. pyogenes EES61, unit assumed
# [11] = test system: STREPTOCOCCUS PYOGENES 930; experiment: as above; conditions: S. pyogenes 930, unit assumed
# [12] = test system: STREPTOCOCCUS PYOGENES PIU 2548; experiment: as above; conditions: S. pyogenes PIU 2548, unit assumed
# ESCHERICHIA COLI JUHL = conditions: E. coli JUHL; BHI agar; unit assumed
# ESCHERICHIA COLI SS = experiment: In vitro antibacterial activity, MIC, BHI agar dilution; conditions: E. coli SS, unit assumed
# ESCHERICHIA COLI DC-2 = experiment: as above; conditions: E. coli DC-2, unit assumed
# ESCHERICHIA COLI H560 = experiment: as above; conditions: E. coli H560, unit assumed
# ESCHERICHIA COLI KNK 437 = conditions: E. coli KNK 437; BHI agar; unit assumed
# [13] = test system: ENTEROBACTER AEROGENES ATCC 13048; experiment: In vitro antibacterial activity, MIC, BHI agar dilution; conditions: E. aerogenes ATCC 13048, unit assumed
# [14] = test system: KLEBSIELLA PNEUMONIAE ATCC 8045; experiment: as above; conditions: K. pneumoniae ATCC 8045, unit assumed
# [15] = test system: PROVIDENCIA STUARTII CMX 640; conditions: P. stuartii CMX 640; BHI agar; unit assumed
# [16] = test system: PSEUDOMONAS AERUGINOSA BMH10; experiment: In vitro antibacterial activity, MIC, BHI agar dilution; conditions: P. aeruginosa BMH10, unit assumed
# [17] = test system: PSEUDOMONAS AERUGINOSA 5007; experiment: as above; conditions: P. aeruginosa 5007, unit assumed
# [18] = test system: PSEUDOMONAS AERUGINOSA K799/WT; experiment: as above; conditions: P. aeruginosa K799/WT, unit assumed
# [19] = test system: PSEUDOMONAS AERUGINOSA K799/61; experiment: as above; conditions: P. aeruginosa K799/61, unit assumed
# PSEUDOMONAS CEPACIA 296I = experiment: as above; conditions: P. cepacia 296I, unit assumed
# [20] = test system: PSEUDOMONAS AERUGINOSA DPHD-5263; experiment: as above; conditions: P. aeruginosa DPHD-5263, unit assumed
# [21] = test system: PSEUDOMONAS AERUGINOSA DPHD-2862; experiment: as above; conditions: P. aeruginosa DPHD-2862, unit assumed
# CANDIDA ALBICANS CCH 442 = experiment: as above; conditions: C. albicans CCH 442, unit assumed
# [22] = test system: MYCOBACTERIUM SMEGMATIS ATCC 114; experiment: as above; conditions: M. smegmatis ATCC 114, unit assumed
Structure (SMILES),MIC [1] [µg/mL],MIC [2] [µg/mL],MIC [3] [µg/mL],MIC [4] [µg/mL],MIC [5] [µg/mL],MIC [6] [µg/mL],MIC [7] [µg/mL],MIC [8] [µg/mL],MIC (EN[…] ATCC 8043) [µg/mL],MIC (M[…] ATCC 4698) [µg/mL],MIC (M[…] ATCC 9341) [µg/mL],MIC (STR[…] 508) [µg/mL],MIC [9] [µg/mL],MIC [10] [µg/mL],MIC [11] [µg/mL],MIC [12] [µg/mL],MIC (ESCHERICHIA COLI JUHL) [µg/mL],MIC (ESCHERICHIA COLI SS) [µg/mL],MIC (ESCHERICHIA COLI DC-2) [µg/mL],MIC (ESCHERICHIA COLI H560) [µg/mL],other results
CC[C@H]1OC(=O)[C@H](C)C(=O)[C@H](C)[C@@H](O[C@@H]2O[C@H](C)C[C@H](N(C)C)[C@H]2O)[C@](C)(OC)C[C@@H](C)C2=N[C@H](COCc3ccc(Br)cc3)CN3C(=O)O[C@@]1(C)[C@H]3[C@H]2C [Example 103],0.05,0.05,100,0.05,0.05,0.05,100,0.05,≤ 0.005,≤ 0.005,≤ 0.005,≤ 0.005,≤ 0.005,≤ 0.005,25,0.05,100,0.39,100,100,MIC (ESCHERICHIA COLI KNK 437): > 100 µg/mL; MIC [13]: > 100 µg/mL; MIC [14]: > 100 µg/mL; MIC [15]: > 100 µg/mL; MIC [16]: > 100 µg/mL; MIC [17]: > 100 µg/mL; MIC [18]: > 100 µg/mL; MIC [19]: 0.78 µg/mL; MIC (PSEUDOMONAS CEPACIA 296I): 50 µg/mL; MIC [20]: > 100 µg/mL; MIC [21]: > 100 µg/mL; MIC (CANDIDA ALBICANS CCH 442): 50 µg/mL; MIC [22]: 0.2 µg/mL
CC[C@H]1OC(=O)[C@H](C)C(=O)[C@H](C)[C@@H](O[C@@H]2O[C@H](C)C[C@H](N(C)C)[C@H]2O)[C@](C)(OC)C[C@@H](C)C2=NC3CCCC3N3C(=O)O[C@@]1(C)[C@H]3[C@H]2C (stereo partly drawn) [Example 107],0.78,0.78,> 100,0.78,0.78,0.78,> 100,0.78,0.1,0.39,0.05,0.02,0.01,0.02,> 100,0.39,> 100,0.39,> 100,50,MIC (ESCHERICHIA COLI KNK 437): > 100 µg/mL; MIC [13]: > 100 µg/mL; MIC [14]: > 100 µg/mL; MIC [15]: > 100 µg/mL; MIC [16]: > 100 µg/mL; MIC [17]: > 100 µg/mL; MIC [18]: > 100 µg/mL; MIC [19]: 6.2 µg/mL; MIC (PSEUDOMONAS CEPACIA 296I): > 100 µg/mL; MIC [20]: > 100 µg/mL; MIC [21]: > 100 µg/mL; MIC (CANDIDA ALBICANS CCH 442): > 100 µg/mL; MIC [22]: 1.56 µg/mL
CC[C@H]1OC(=O)[C@H](C)C(=O)[C@H](C)[C@@H](O[C@@H]2O[C@H](C)C[C@H](N(C)C)[C@H]2O)[C@](C)(OC)C[C@@H](C)C2=NC3CNCC3N3C(=O)O[C@@]1(C)[C@H]3[C@H]2C (stereo partly drawn) [Example 109],0.39,0.39,> 100,0.39,0.39,0.78,> 100,0.39,0.1,0.2,0.05,0.1,0.05,0.05,> 100,0.78,25,0.2,12.5,6.2,MIC (ESCHERICHIA COLI KNK 437): 25 µg/mL; MIC [13]: 25 µg/mL; MIC [14]: 25 µg/mL; MIC [15]: > 100 µg/mL; MIC [16]: 50 µg/mL; MIC [17]: > 100 µg/mL; MIC [18]: > 100 µg/mL; MIC [19]: 0.39 µg/mL; MIC (PSEUDOMONAS CEPACIA 296I): > 100 µg/mL; MIC [20]: > 100 µg/mL; MIC [21]: > 100 µg/mL; MIC (CANDIDA ALBICANS CCH 442): > 100 µg/mL; MIC [22]: 3.1 µg/mL

# Source: US6274715A, “Tricyclic erythromycin derivatives” (priority 1997, dated 2001)
